Assay: Inhibition of yeast alpha-D-glucosidase

Row | SMILES | IC50 | Ki
1 | O=C1CNC[C@@H]1O | 150 µM | –
2 | O[C@H]1[C@H](O)CN[C@H]1O | – | 2 µM
3 | OC[C@H]1NC(O)[C@H](O)[C@@H](O)[C@@H]1O (stereo partly drawn) [NOJIRIMYCIN] | – | 6.3 µM
